Results as given in PubChem BioAssay AID1963968 (Molecular Pharmacology Branch, DTP, NCI, 2024).

System: 945468-187-T-J3-PDC spheroids with HUVEC/MSC, viability
Experiment: Anticancer human tumor 945468-187-T-J3-PDC patient-derived rectal carcinoma cell line growth inhibition [PI3K]
Conditions: for IC50: curve of first compound; for viability, T/C: stronger effect = lower value
Outline: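 High-throughput combination screen: PI3K inhibitors crossed with targeted small molecules on complex spheroids of tumor cells, HUVEC and MSCs at 37 degrees C, 5% CO2. Top concentration was at or near clinical Cmax (otherwise 10 microM), with half-log decrements.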

[1] = second compound 0.0316 µM, first compound 0.0316 µM
[2] = second compound 0.0316 µM, first compound 0.1 µM
[3] = second compound 0.0316 µM, first compound 0.316 µM
[4] = second compound 0.0316 µM, first compound 1 µM
[5] = second compound 0.0316 µM, first compound 3.16 µM
[6] = second compound 0.0316 µM, first compound 10 µM
[7] = second compound 0.1 µM, first compound 0.0316 µM
[8] = second compound 0.1 µM, first compound 0.1 µM
[9] = second compound 0.1 µM, first compound 0.316 µM
[10] = second compound 0.1 µM, first compound 1 µM
[11] = second compound 0.1 µM, first compound 3.16 µM
[12] = second compound 0.1 µM, first compound 10 µM
[13] = second compound 0.316 µM, first compound 0.0316 µM
[14] = second compound 0.316 µM, first compound 0.1 µM
[15] = second compound 0.316 µM, first compound 0.316 µM
[16] = second compound 0.316 µM, first compound 1 µM
[17] = second compound 0.316 µM, first compound 3.16 µM
[18] = second compound 0.316 µM, first compound 10 µM
[19] = second compound 1 µM, first compound 0.0316 µM
[20] = second compound 1 µM, first compound 0.1 µM
[21] = second compound 1 µM, first compound 0.316 µM
[22] = second compound 1 µM, first compound 1 µM
[23] = second compound 1 µM, first compound 3.16 µM
[24] = second compound 1 µM, first compound 10 µM
[25] = second compound 3.16 µM, first compound 0.0316 µM
[26] = second compound 3.16 µM, first compound 0.1 µM
[27] = second compound 3.16 µM, first compound 0.316 µM
[28] = second compound 3.16 µM, first compound 1 µM
[29] = second compound 3.16 µM, first compound 3.16 µM
[30] = second compound 3.16 µM, first compound 10 µM
[31] = second compound 10 µM, first compound 0.0316 µM
[32] = second compound 10 µM, first compound 0.1 µM
[33] = second compound 10 µM, first compound 0.316 µM
[34] = second compound 10 µM, first compound 1 µM
[35] = second compound 10 µM, first compound 3.16 µM
[36] = second compound 10 µM, first compound 10 µM
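Further: spheroids exposed to agents for 7 days before viability read.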
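Wherever viability, T/C is given: 100% = DMSO vehicle control viability.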

## C#Cc1c(F)ccc2cc(O)cc(-c3ncc4c(N5CC6CCC(C5)N6)nc(OCC56CCCN5CC(F)C6)nc4c3F)c12 (stereo not drawn) + CC(Nc1ncnc2nc[nH]c12)c1cc2cccc(Cl)c2c(=O)n1-c1ccccc1
Second compound 0.0316 µM
  IC50: > 10 µM
Second compound 0.1 µM
  IC50: > 10 µM
Second compound 0.316 µM
  IC50: > 10 µM
Second compound 1 µM
  IC50: > 10 µM
Second compound 3.16 µM
  IC50: > 10 µM
Second compound 10 µM
  IC50: > 10 µM
[1]
  viability, T/C: 91.2%
[2]
  viability, T/C: 93%
[3]
  viability, T/C: 103%
[4]
  viability, T/C: 110%
[5]
  viability, T/C: 113%
[6]
  viability, T/C: 101%
[7]
  viability, T/C: 101%
[8]
  viability, T/C: 105%
[9]
  viability, T/C: 99.8%
[10]
  viability, T/C: 103%
[11]
  viability, T/C: 115%
[12]
  viability, T/C: 101%
[13]
  viability, T/C: 100%
[14]
  viability, T/C: 97.4%
[15]
  viability, T/C: 103%
[16]
  viability, T/C: 107%
[17]
  viability, T/C: 117%
[18]
  viability, T/C: 104%
[19]
  viability, T/C: 100%
[20]
  viability, T/C: 95.2%
[21]
  viability, T/C: 96.8%
[22]
  viability, T/C: 111%
[23]
  viability, T/C: 111%
[24]
  viability, T/C: 97.9%
[25]
  viability, T/C: 102%
[26]
  viability, T/C: 105%
[27]
  viability, T/C: 106%
[28]
  viability, T/C: 99.8%
[29]
  viability, T/C: 110%
[30]
  viability, T/C: 101%
[31]
  viability, T/C: 100%
[32]
  viability, T/C: 99.5%
[33]
  viability, T/C: 111%
[34]
  viability, T/C: 126%
[35]
  viability, T/C: 121%
[36]
  viability, T/C: 92.5%

## C=CC(=O)N1CCN(c2nc(=O)n(-c3c(C)ccnc3C(C)C)c3nc(-c4c(O)cccc4F)c(F)cc23)C(C)C1 (stereo not drawn) + CC(Nc1ncnc2nc[nH]c12)c1cc2cccc(Cl)c2c(=O)n1-c1ccccc1
Second compound 0.0316 µM
  IC50: > 10 µM
Second compound 0.1 µM
  IC50: > 10 µM
Second compound 0.316 µM
  IC50: > 10 µM
Second compound 1 µM
  IC50: > 10 µM
Second compound 3.16 µM
  IC50: > 10 µM
Second compound 10 µM
  IC50: > 10 µM
[1]
  viability, T/C: 91.9%
[2]
  viability, T/C: 92.9%
[3]
  viability, T/C: 104%
[4]
  viability, T/C: 96.4%
[5]
  viability, T/C: 96.6%
[6]
  viability, T/C: 98.3%
[7]
  viability, T/C: 94.7%
[8]
  viability, T/C: 103%
[9]
  viability, T/C: 100%
[10]
  viability, T/C: 92.6%
[11]
  viability, T/C: 107%
[12]
  viability, T/C: 95.9%
[13]
  viability, T/C: 94.8%
[14]
  viability, T/C: 92.9%
[15]
  viability, T/C: 88.5%
[16]
  viability, T/C: 91.6%
[17]
  viability, T/C: 106%
[18]
  viability, T/C: 99.3%
[19]
  viability, T/C: 99.3%
[20]
  viability, T/C: 105%
[21]
  viability, T/C: 94.8%
[22]
  viability, T/C: 94.1%
[23]
  viability, T/C: 107%
[24]
  viability, T/C: 95.8%
[25]
  viability, T/C: 90.5%
[26]
  viability, T/C: 99.6%
[27]
  viability, T/C: 101%
[28]
  viability, T/C: 110%
[29]
  viability, T/C: 97.2%
[30]
  viability, T/C: 93.4%
[31]
  viability, T/C: 104%
[32]
  viability, T/C: 91.1%
[33]
  viability, T/C: 97.9%
[34]
  viability, T/C: 97.6%
[35]
  viability, T/C: 116%
[36]
  viability, T/C: 93.9%

## CC(Cn1ccc(-c2ccc(C#N)c(Cl)c2)n1)NC(=O)c1cc(C(C)O)[nH]n1 (stereo not drawn) + CC(Nc1ncnc2nc[nH]c12)c1cc2cccc(Cl)c2c(=O)n1-c1ccccc1
Second compound 0.0316 µM
  IC50: > 10 µM
Second compound 0.1 µM
  IC50: > 10 µM
Second compound 0.316 µM
  IC50: > 10 µM
Second compound 1 µM
  IC50: > 10 µM
Second compound 3.16 µM
  IC50: > 10 µM
Second compound 10 µM
  IC50: > 10 µM
[1]
  viability, T/C: 93.4%
[2]
  viability, T/C: 104%
[3]
  viability, T/C: 126%
[4]
  viability, T/C: 91.3%
[5]
  viability, T/C: 125%
[6]
  viability, T/C: 94%
[7]
  viability, T/C: 91.1%
[8]
  viability, T/C: 95.5%
[9]
  viability, T/C: 89.5%
[10]
  viability, T/C: 91.4%
[11]
  viability, T/C: 114%
[12]
  viability, T/C: 105%
[13]
  viability, T/C: 95.5%
[14]
  viability, T/C: 100%
[15]
  viability, T/C: 118%
[16]
  viability, T/C: 97.9%
[17]
  viability, T/C: 101%
[18]
  viability, T/C: 106%
[19]
  viability, T/C: 87.8%
[20]
  viability, T/C: 108%
[21]
  viability, T/C: 98.1%
[22]
  viability, T/C: 93%
[23]
  viability, T/C: 104%
[24]
  viability, T/C: 94.8%
[25]
  viability, T/C: 94.8%
[26]
  viability, T/C: 102%
[27]
  viability, T/C: 96.5%
[28]
  viability, T/C: 112%
[29]
  viability, T/C: 113%
[30]
  viability, T/C: 110%
[31]
  viability, T/C: 122%
[32]
  viability, T/C: 99.1%
[33]
  viability, T/C: 98.2%
[34]
  viability, T/C: 96.7%
[35]
  viability, T/C: 104%
[36]
  viability, T/C: 91.2%

## CC1(C)CCC(Nc2ncc(C(F)(F)F)c(-c3c[nH]c4c(P(C)(C)=O)c(C#N)ccc34)n2)CN1 (stereo not drawn) + CC(Nc1ncnc2nc[nH]c12)c1cc2cccc(Cl)c2c(=O)n1-c1ccccc1
Second compound 0.0316 µM
  IC50: 4.49 µM
Second compound 0.1 µM
  IC50: 4.55 µM
Second compound 0.316 µM
  IC50: 4.74 µM
Second compound 1 µM
  IC50: 4.69 µM
Second compound 3.16 µM
  IC50: 4.74 µM
Second compound 10 µM
  IC50: 4.74 µM
[1]
  viability, T/C: 65.5%
[2]
  viability, T/C: 64.1%
[3]
  viability, T/C: 58.2%
[4]
  viability, T/C: 68.1%
[5]
  viability, T/C: 75.1%
[6]
  viability, T/C: 12.9%
[7]
  viability, T/C: 67.7%
[8]
  viability, T/C: 59.8%
[9]
  viability, T/C: 54.9%
[10]
  viability, T/C: 72%
[11]
  viability, T/C: 73%
[12]
  viability, T/C: 16.6%
[13]
  viability, T/C: 68.2%
[14]
  viability, T/C: 67.4%
[15]
  viability, T/C: 55.8%
[16]
  viability, T/C: 66.2%
[17]
  viability, T/C: 86.7%
[18]
  viability, T/C: 15.2%
[19]
  viability, T/C: 79.9%
[20]
  viability, T/C: 62.4%
[21]
  viability, T/C: 56.6%
[22]
  viability, T/C: 67.5%
[23]
  viability, T/C: 78.9%
[24]
  viability, T/C: 13.4%
[25]
  viability, T/C: 73.8%
[26]
  viability, T/C: 64.3%
[27]
  viability, T/C: 59%
[28]
  viability, T/C: 66.6%
[29]
  viability, T/C: 79.4%
[30]
  viability, T/C: 15.7%
[31]
  viability, T/C: 78.9%
[32]
  viability, T/C: 66.1%
[33]
  viability, T/C: 77.9%
[34]
  viability, T/C: 58.9%
[35]
  viability, T/C: 81.4%
[36]
  viability, T/C: 7.98%
